# Laboratory results reported in the NIST ThermoML archive (doi:10.1016/j.fluid.2013.08.024).
# Numbers after ± are expanded uncertainties.
# Experiments:
# [1] = Molar enthalpy of transition or fusion; conditions: Crystal; DSC
# [2] = Crystal; DTA
SMILES,Molar enthalpy of transition or fusion [1] [kcal/mol],Normal melting temperature [2] [°C]
CCCCCCCCCCCCCCCCCC(=O)OCC [ethyl octadecanoate],14.3 ± 0.382,34.2 ± 0.7
CCCCCCCCCCCC(=O)OCC [ethyl dodecanoate],9.29 ± 0.263,0.1 ± 0.7
CCCCCCCCCCCCCCCC(=O)OCC [ethyl hexadecanoate],13.3 ± 0.359,25.08 ± 0.7
